Source: US9012433B2, “Substituted tetracycline compounds” (Paratek Pharmaceuticals, Inc., priority 2006, dated 2015)
Values after ≈ are worked out from the molar mass of the structure shown.

How the values were obtained:
Format in all cases: cell-based
[1] = tested on: E. coli MG 1655; assay: Antibacterial MIC, CLSI broth microdilution; conditions: Escherichia coli, MG1655; 35° C., 18-24 hours
Procedure: (§1) Grain (−) and gram (+) antibacterial minimum inhibitory concentration (MIC) values (μg/mL) were obtained using CLSI methodology for anti-bacterial susceptibility testing. On each day of testing, serial dilutions of compounds were prepared in microdilution plates using a Tecan robotic workstation. Mueller Hinton broth cultures of representative sensitive and resistant gram negative strains were grown or adjusted to match the turbidity of a 0.5 McFarland standard. 1:200 dilutions were made in an appropriate broth (cation supplemented Mueller Hinton broth) to allow a final inoculum of 1×10^5 cfu. Plates were incubated at 35° C. in ambient air for 18-24 hours, were read spectrophotometrically and checked manually for evidence of bacterial growth. The lowest dilution of compound that inhibited growth was recorded as the MIC. Lysed horse blood was used to supplement broth for testing S. pneumoniae. The MIC's for each compound were assessed against S. aureus, S. pneumoniae, P. acnes, E. coli and B. theta.

[2] = tested on: P. acnes ATCC 11827; assay: Antibacterial MIC, CLSI broth microdilution; conditions: Cutibacterium acnes, ATCC11827; 35° C., 18-24 hours
Procedure: as §1

[3] = tested on: S. aureus RN450; assay: Antibacterial MIC, CLSI broth microdilution; conditions: Staphylococcus aureus, RN450; 35° C., 18-24 hours
Procedure: as §1

[4] = tested on: B. thetaiotaomicron ATCC 29741; assay: Antibacterial MIC, CLSI broth microdilution; conditions: Bacteroides thetaiotaomicron, ATCC29741; 35° C., 18-24 hours; read-out: MIC B. thetaiotaomicron ATCC 29741
Procedure: as §1

[5] = tested on: P. acnes ATCC 6919; assay: Antibacterial MIC, CLSI broth microdilution; conditions: Cutibacterium acnes, ATCC6919; 35° C., 18-24 hours
Procedure: as §1

[6] = tested on: S. pneumoniae 157E - Strep; assay: Antibacterial MIC, CLSI broth microdilution; conditions: Streptococcus pneumoniae, 157ESTREP; 35° C., 18-24 hours; lysed horse blood
Procedure: as §1

[7] = tested on: E. coli ATCC 25922; assay: Antibacterial MIC, CLSI broth microdilution; conditions: Escherichia coli, ATCC25922; 35° C., 18-24 hours
Procedure: as §1

[8] = in vitro
Procedure: Mammalian cell cytotoxicity was assessed to evaluate potential in vivo risks associated with the tetracycline compounds of the invention. A soluble, non-toxic redox dye (“Resazurin”; Alamar Blue) was used to assess a tetracycline compound's effect on cellular metabolism. At the onset of the experiment, cultures of mammalian COS-1 or CHO cells were washed, trypsinized, and harvested. […] On the next day, serial dilutions of test drug were prepared under sterile conditions and transferred to cell plates. Plates were then incubated under the above conditions for 24 hours. Following the incubation period, the media/drug was aspirated, and 50 μL of resazurin was added. Plates were then incubated under the above conditions for 2 hours and then in the dark at room temperature for an additional 30 minutes. Fluorescence measurements were taken (excitation 535 nm, emission 590 nm) and toxic effects in treated versus control cells were compared based on the degree of fluorescence in each well.

SMILES | MIC [1] [µg/mL] | MIC [2] [µg/mL] | MIC [3] [µg/mL] | MIC [4] [µg/mL] | MIC [5] [µg/mL] | MIC [6] [µg/mL] | MIC [7] [µg/mL] | IC50 at 24 h ([8]; African green monkey) [µg/mL] | IC50 at 24 h ([8]; Chinese hamster) [µg/mL]
C/C(=N\OCC(F)(F)F)c1cc(N)c(O)c2c1C[C@H]1C[C@H]3[C@H](N(C)C)C(O)=C(C(N)=O)C(=O)[C@@]3(O)C(O)=C1C2=O [DT, (4S,4aS,5aR,12aS)-9-Amino-4-dimethylamino-3,10,12,12a-tetrahydroxy-1,1,1-dioxo-7-[1-(2,2,2-trifluoro-ethoxyimino)-ethyl]-1,4,4a,5,5a,6,11,12a-octahydro-naphthacene-2-carboxylic acid amide] | 4 to 8 (≈ 7.04 to 14.1 µM) | < 4 | < 4 | 4 to 8 (≈ 7.04 to 14.1 µM) | < 4 | < 4 | 4 to 8 (≈ 7.04 to 14.1 µM) |  | 
CN(C)[C@@H]1C(O)=C(C(N)=O)C(=O)[C@@]2(O)C(O)=C3C(=O)c4c(O)ccc(/C=N/n5cccc5)c4C[C@H]3C[C@@H]12 [AC, (4S,4aS,5aR,12aS)-4-Dimethylamino-3,10,12,12a-tetrahydroxy-1,11-dioxo-7-(pyrrol-1-yliminomethyl)-1,4,4a,5,5a,6,11,12a-octahydro-naphthacene-2-carboxylic acid amide] | > 8 | < 4 | < 4 | 4 to 8 (≈ 7.9 to 15.8 µM) | < 4 | < 4 | 4 to 8 (≈ 7.9 to 15.8 µM) | < 35 | < 35
CN(C)[C@@H]1C(O)=C(C(N)=O)C(=O)[C@@]2(O)C(O)=C3C(=O)c4c(O)ccc(-c5ncco5)c4C[C@H]3C[C@@H]12 [J] | < 4 | < 4 | < 4 | < 4 | < 4 | < 4 | < 4 | < 35 | < 35
CCO/N=C(\C)c1cc(N)c(O)c2c1C[C@H]1C[C@H]3[C@H](N(C)C)C(O)=C(C(N)=O)C(=O)[C@@]3(O)C(O)=C1C2=O [M] | 4 to 8 (≈ 7.77 to 15.5 µM) | < 4 | < 4 | 4 to 8 (≈ 7.77 to 15.5 µM) | < 4 | < 4 | < 4 | > 75 | > 75
CCONCc1ccc2c(c1O)C(=O)C1=C(O)[C@]3(O)C(=O)C(C(N)=O)=C(O)[C@@H](N(C)C)[C@@H]3C[C@@H]1C2 [GM] | > 8 | 4 to 8 (≈ 8.2 to 16.4 µM) | < 4 | 4 to 8 (≈ 8.2 to 16.4 µM) | < 4 | < 4 | > 8 | < 35 | < 35
CN(C)[C@H]1C(O)=C(C(N)=O)C(=O)[C@@]2(O)C(O)=C3C(=O)c4c(O)ccc(CNOCCF)c4C[C@H]3C[C@@H]12 [EB] | > 8 | < 4 | < 4 | 4 to 8 (≈ 7.91 to 15.8 µM) | < 4 | 4 to 8 (≈ 7.91 to 15.8 µM) | > 8 |  | 

Results, then the compound that gave them:

MIC [1] [µg/mL] | MIC [2] [µg/mL] | MIC [3] [µg/mL] | MIC [4] [µg/mL] | MIC [5] [µg/mL] | MIC [6] [µg/mL] | MIC [7] [µg/mL] | IC50 at 24 h ([8]; African green monkey) [µg/mL] | IC50 at 24 h ([8]; Chinese hamster) [µg/mL] | SMILES
> 8 | < 4 | < 4 | 4 to 8 (≈ 7.98 to 16 µM) | < 4 | < 4 | 4 to 8 (≈ 7.98 to 16 µM) | > 75 | < 35 | CCON(C)Cc1ccc(O)c2c1C[C@H]1C[C@H]3[C@H](N(C)C)C(O)=C(C(N)=O)C(=O)[C@@]3(O)C(O)=C1C2=O [AE]
> 8 | 4 to 8 (≈ 7.85 to 15.7 µM) | < 4 | > 8 | 4 to 8 (≈ 7.85 to 15.7 µM) | < 4 | 4 to 8 (≈ 7.85 to 15.7 µM) | > 75 | > 75 | CC1CCN(Cc2cccc3c2C[C@H]2C[C@H]4[C@@H](N(C)C)C(O)=C(C(N)=O)C(=O)[C@@]4(O)C(O)=C2C3=O)CC1 [G]
> 8 | < 4 | < 4 | 4 to 8 (≈ 7.39 to 14.8 µM) | < 4 | < 4 | > 8 | < 35 | < 35 | C=CCN(Cc1ccc(O)c2c1C[C@H]1C[C@H]3[C@H](N(C)C)C(O)=C(C(N)=O)C(=O)[C@@]3(O)C(O)=C1C2=O)C(=O)OC [F]
> 8 |  | < 4 |  |  | < 4 | > 8 |  |  | CN(C)[C@@H]1C(O)=C(C(N)=O)C(=O)[C@@]2(O)C(O)=C3C(=O)c4c(O)ccc(CN5OCCC5=N)c4C[C@H]3C[C@@H]12 [EC]
